Results reported in article PMC6264176, “Cholesterol-Lowering Activity of the Major Polyphenols in Grape Seed” (Molecules, 2011).

molecular target: T1, pancreatic cholesterol esterase (Sus scrofa, UniProt A0A286ZKB1); experiment: p-NPB hydrolysis by porcine pancreatic cholesterol esterase, absorbance at […] nm, with taurocholic acid; assay type: biochemical
T1 construct: gene CEL
T1 sequence (A0A286ZKB1 96-682): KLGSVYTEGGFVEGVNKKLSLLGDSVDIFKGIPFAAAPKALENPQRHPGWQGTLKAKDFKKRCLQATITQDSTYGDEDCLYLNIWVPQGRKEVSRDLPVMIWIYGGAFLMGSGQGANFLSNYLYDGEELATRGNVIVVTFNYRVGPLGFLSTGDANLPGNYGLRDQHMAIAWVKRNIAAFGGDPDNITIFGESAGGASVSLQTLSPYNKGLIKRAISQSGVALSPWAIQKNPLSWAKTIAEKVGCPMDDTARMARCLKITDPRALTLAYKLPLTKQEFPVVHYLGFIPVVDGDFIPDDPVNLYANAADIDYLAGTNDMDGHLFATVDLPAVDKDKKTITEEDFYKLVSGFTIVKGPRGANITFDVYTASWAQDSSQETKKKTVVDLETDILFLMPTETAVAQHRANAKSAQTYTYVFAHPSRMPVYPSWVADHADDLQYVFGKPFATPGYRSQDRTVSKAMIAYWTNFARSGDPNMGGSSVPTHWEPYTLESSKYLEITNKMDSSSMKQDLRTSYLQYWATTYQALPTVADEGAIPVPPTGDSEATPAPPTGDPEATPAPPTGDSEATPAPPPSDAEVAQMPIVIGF

Q: With Oc1cc(O)c2c(c1)OC(c1ccc(O)c(O)c1)C(O)C2 (single isomer, unassigned; (+)) [(+)-Catechin] as the molecule, how does the IC50 read?
A: Its IC50 is over 345 µM.

Q: Oc1cc(O)c2c(c1)O[C@H](c1ccc(O)c(O)c1)[C@H](O)C2 [(–)-epicatechin] was tested. Which IC50 did it give?
A: Its IC50 is over 345 µM.

Q: With O=C(O)c1cc(O)c(O)c(O)c1 [gallic acid] as the molecule, how does the IC50 read?
A: The IC50 was over 588 µM.
